Source: patent publication US11013694B2, “Formulation of a micro drop pill and the preparation method thereof” (TASLY PHARMACEUTICAL GROUP CO., LTD., priority 2013, dated 2021)
Structures can show the parent of a compound that is named as a salt.

Key:
[1] = system: heart rate in rats with myocardial infarction; assay: Heart rate (ECG) in rats with myocardial infarction after ligation; assay type: in vivo, SD male rats; conditions: 7 d pre-administration
Source text: (§1) SD male rats, weighing 340˜360 g, were purchased from Beijing Weitonglihua Experimental Animal Co., Ltd, and certification No.: SCXK (Jing) 2007-0001.
(§2) Grouping: the rats were randomly divided into groups according to their body weight: S group (Sham operation group), M group (Model group), Y group (Positive control group, metoprolol tartrate, Lot No. 1201039), F group (CSMDP of the present invention) and G group (CSDP available in China, Lot No. 2011L16); 10 rats in each group.
On the 8th day, the rats were anesthetized intraperitoneally with 10% chloral hydrate (3 ml/kg) and fixed on a small wood plate in a supine position. Pins were inserted under the skin of the right forelimb and both hind limbs, and then the rats were connected with the MedLab-U/8c bio-signals collecting-processing system to record ECG of the rats. Hair on the front wall of the left chest was clipped. Oral tracheal cannula was performed and the animal respirator was connected at a respiratory frequency of 80 breaths/min, tidal volume 3 ml/100 g and I:E=1:1. Chest on the left front chest lateral side was incised to cut the 3′ rib and the pericardium was carefully lifted with forceps to tear apart. […] Medical suture (4-0) was used to transfix LAD and a small amount of myocardial tissue at a distance of about 1˜2 mm from the lower edge of the left atrial appendage and inside interventricular sulcus in the vicinity of the left main trunk of coronary vein. The rats with an elevated J point by 0.1 mV in ECG and pale LVAW (left ventricular anterior wall) indicated a successful modeling. Chest was closed layer by layer. The tracheal tube was removed until the voluntary respiration was recovered in the rats. ECG was recorded continuously for 4 hours.

[2] = system: acute myocardial infarction in rats; assay: Acute myocardial infarction in rats by coronary artery (LAD) ligature: myocardial infarction rate (MIR); assay type: in vivo, SD male rats; conditions: intragastric pre-administration 7 d (Y 4.5, G 115, F 84 mg/kg)
Source text: as §1, §2
On the 8th day, the rats were anesthetized intraperitoneally with 10% chloral hydrate (3 ml/kg) and fixed on a small wood plate in a supine position. Pins were inserted under the skin of the right forelimb and both hind limbs, and then the rats were connected with the MedLab-U/8c bio-signals collecting-processing system to record ECG of the rats. Hair on the front wall of the left chest was clipped. Oral tracheal cannula was performed and the animal respirator was connected at a respiratory frequency of 80 breaths/min, tidal volume 3 ml/100 g and I:E=1:1. Chest on the left front chest lateral side was incised to cut the 3′ rib and the pericardium was carefully lifted with forceps to tear apart. […] ECG was recorded continuously for 4 hours. […]

COCCc1ccc(OCC(O)CNC(C)C)cc1 (stereo not drawn) [Y group, metoprolol tartrate]
heart rate ([1]; 0 s after ligation): 377 ± 48 beat/min | heart rate ([1]; 5 s after ligation): 423 ± 39 beat/min | heart rate ([1]; 10 s after ligation): 419 ± 41 beat/min | heart rate ([1]; 5 min after ligation): 424 ± 29 beat/min | heart rate ([1]; 10 min after ligation): 431 ± 17 beat/min | heart rate ([1]; 30 min after ligation): 413 ± 34 beat/min | heart rate ([1]; 1 h after ligation): 421 ± 47 beat/min | heart rate ([1]; 2 h after ligation): 416 ± 33 beat/min | heart rate ([1]; 3 h after ligation): 380 ± 66 beat/min | heart rate ([1]; 4 h after ligation): 395 ± 52 beat/min | Average wet weight of the infarction region ([2]; LAD ligation on 8th day, heart taken after 4 h ECG): 0.0233 ± 0.0038 g | MIR (myocardial infarction rate = wet weight of the infarction region/wet weight of the whole heart x 100%) ([2]; LAD ligation, model group 5.07 ± 0.75): 2.65 ± 0.33 %
